Experimental data reported in patent US8808749B2, “Polymer conjugate of bioactive substance having hydroxy group” (priority 2009, dated 2014).

Columns and labels:
[1] = tested on: Mouse colon cancer, Colon 26; assay: Antitumor activity test for combretastatin A4 conjugate; format: in vivo; conditions: for relative tumor volume based on non-treatment group: 200 mg/kg in terms of combretastatin A4, once into tail vein
Text: Mouse colon cancer, Colon 26, maintained by serial subcutaneous subculture in mice, was minced into about 2-mm cubic fragments, and the fragments were subcutaneously transplanted on the dorsal part of female CDF1 mice with a trocar. Eight days after the tumor transplantation, the polymer conjugate according to the invention (Compound 22) or a control drug (combretastatin A4 phosphate ester; CA4P, PEG-Glu-CA4 or PEG-Asp-CA4) was each administered once into the mouse tail vein in a way such that each mouse received the same dose per body weight in terms of combretastatin A4. Each compound was dissolved in a 5% aqueous glucose solution and used.
After the administration, the major axis (L mm) and the minor axis (W mm) of the tumor were measured using a caliper, and the tumor volume was calculated by the formula (L×W^2)/2.

heart muscle = assay: Effect of combretastatin A4 conjugate on heart muscle (plasma CPK); format: in vivo, mouse; conditions: for creatinine phosphokinase (CPK) in plasma, average: 200 mg/kg once into tail vein
Text: Combretastatins are known to have a side effect of causing a myocardial damage. As such, by following a change in efficacy of creatinine phosphokinase (CPK) that is released into blood when enzymes abundantly present in heart muscles or neurons are damaged, the degree of side effect of the compounds according to the invention was compared to those of known compounds.
To a non-treated female CDF1 mouse, Compound 22 as a compound of the invention and CA4P, PEG-Glu-CA4, and PEG-Asp-CA4 as a comparative compound were each administered once into the mouse tail vein. Six hours and 24 hours after the administration, three animals per each group were anesthetized with ether and blood was taken from abdominal aorta. Creatinine phosphokinase (CPK) contained in plasma was measured.

[2] = tested on: Mouse colon cancer, Colon 26; assay: Antitumor activity test for docetaxel conjugate; format: in vivo; conditions: 100 mg/kg in terms of docetaxel, once into tail vein
Text: Mouse colon cancer, Colon 26, maintained by serial subcutaneous subculture in mice, was minced into about 2-mm cubic fragments, and the fragments were subcutaneously transplanted on the dorsal part of female CDF1 mice with a trocar. Eight days after the tumor transplantation, the polymer conjugate according to the invention (Compound 30) or a control drug (docetaxel; DTX or PEG-Asp-DTX) was each administered once into the mouse tail vein in a way such that each mouse received the same dose per body weight in terms of docetaxel. Docetaxel was dissolved in anhydrous ethanol and cremophor (manufactured by Sigma Corporation), and diluted with physiological saline at the time of use. Other compounds were dissolved in a 5% aqueous glucose solution for injection and used. After the administration, the major axis (L mm) and the minor axis (W mm) of the tumor were measured using a caliper, and the tumor volume was calculated by the formula (L×W^2)/2.

Compound: COc1ccc(/C=C\c2cc(OC)c(OC)c(OC)c2)cc1OP(=O)(O)O [CA4P, combretastatin A4 phosphate ester]
- relative tumor volume based on non-treatment group ([1]; day 0 after administration): 1.00
- relative tumor volume based on non-treatment group ([1]; day 2 after administration): 0.72
- relative tumor volume based on non-treatment group ([1]; day 4 after administration): 0.82
- relative tumor volume based on non-treatment group ([1]; day 6 after administration): 0.80
- relative tumor volume based on non-treatment group ([1]; day 8 after administration): 0.80
- antitumor activity (in words) ([1]; dose of 200 mg/kg): weak antitumor activity
- creatinine phosphokinase (CPK) in plasma, average (heart muscle; 6 hours after administration): 400-500 IU/L
- creatinine phosphokinase (CPK) in plasma, average (heart muscle; 24 hours after administration): ≦200 IU/L
- CPK change (in words) (heart muscle; dose of 200 mg/kg): CPK increase was significant

Compound: docetaxel [DTX]
- relative tumor volume based on non-treatment group ([2]; day 0 after administration): 1.00
- relative tumor volume based on non-treatment group ([2]; day 3 after administration): 0.50
- relative tumor volume based on non-treatment group ([2]; day 5 after administration): 0.32
- relative tumor volume based on non-treatment group ([2]; day 9 after administration): 0.37
- relative tumor volume based on non-treatment group ([2]; day 12 after administration): 0.35
